Data: the supplement of paper PMC13380429

Columns and labels:
A549-ACE2 [1] = experiment: drug-induced phospholipidosis relative to tamoxifen; higher = more phospholipidosis
A549-ACE2 [2] = experiment: phospholipidosis EC50; higher = less potent phospholipidosis inducer
U2OS [3] = experiment: drug sensitivity score (DSS) for viability; higher = more toxic; extreme values may be limits of the assay; conditions: 72 h
HepG2 [4] = experiment: as above; conditions: 72 h
Caco-2 [5] = experiment: as above; conditions: 72 h
Vero E6 [6] = experiment: as above; conditions: 72 h
Calu-3 [7] = experiment: as above; conditions: 72 h
[8] = test system: A549-ACE2 infected with SARS-CoV-2; experiment: cell count relative to DMSO; higher = less toxic; conditions: 24 h
U2OS [9] = experiment: relative viability EC50 (midpoint between 100% and the lowest measured viability); higher = less toxic; conditions: 72 h
HepG2 [10] = experiment: as above; conditions: 72 h
Calu-3 [11] = experiment: as above; conditions: 72 h
[12] = test system: A549-ACE2 infected with SARS-CoV-2; experiment: SARS-CoV-2 infection rate relative to DMSO; higher = more infection; conditions: 24 h
U2OS [13] = experiment: cell viability relative to DMSO; higher = less toxic; conditions: 72 h
HepG2 [14] = experiment: as above; conditions: 72 h
Caco-2 [15] = experiment: as above; conditions: 72 h
Vero E6 [16] = experiment: as above; conditions: 72 h
Calu-3 [17] = experiment: as above; conditions: 72 h
[18] = test system: A549-ACE2 infected with SARS-CoV-2; experiment: morphology score (similarity to uninfected cells); higher = more like uninfected cells; conditions: 24 h

C[C@H](Oc1cc(-c2cnn(C3CCNCC3)c2)cnc1N)c1c(Cl)ccc(F)c1Cl [crizotinib-(S)]
drug-induced phospholipidosis [%], A549-ACE2 [1]
Conditions | 0.3 µM | 0.833333 µM | 3.33333 µM | 6.66667 µM | 10 µM | 30 µM
24 h | 8.27 | 14.6 | 93.6 | 107 | 67.9 | 67.2
48 h | 6.57 | 10.9 | 65 | 95.4 | 72.5 | 79.1
72 h | 6.4 | 9.01 | 64.9 | 97.9 | 71.4 | 94.9

Conditions | SARS-CoV-2 infection rate [%] | cell count [%] | cell viability [%] | morphology score | phospholipidosis EC50 [µM]
A549-ACE2 [2], 24 h | – | – | – | – | 1.79
A549-ACE2 [2], 48 h | – | – | – | – | 3.04
A549-ACE2 [2], 72 h | – | – | – | – | 3.1
Caco-2 [15], 1 nM | – | – | 93.9 | – | –
Caco-2 [15], 10 nM | – | – | 95.3 | – | –
Caco-2 [15], 100 nM | – | – | 99.2 | – | –
Caco-2 [15], 1000 nM | – | – | 95.1 | – | –
Caco-2 [15], 10000 nM | – | – | 62.1 | – | –
Calu-3 [17], 1 nM | – | – | 97.8 | – | –
Calu-3 [17], 10 nM | – | – | 96.2 | – | –
Calu-3 [17], 100 nM | – | – | 100.3 | – | –
Calu-3 [17], 1000 nM | – | – | 100.4 | – | –
Calu-3 [17], 10000 nM | – | – | 40 | – | –
HepG2 [14], 1 nM | – | – | 100 | – | –
HepG2 [14], 10 nM | – | – | 108 | – | –
HepG2 [14], 100 nM | – | – | 104 | – | –
HepG2 [14], 1000 nM | – | – | 90.9 | – | –
HepG2 [14], 10000 nM | – | – | 43.3 | – | –
U2OS [13], 1 nM | – | – | 98.3 | – | –
U2OS [13], 10 nM | – | – | 96.3 | – | –
U2OS [13], 100 nM | – | – | 99.2 | – | –
U2OS [13], 1000 nM | – | – | 96 | – | –
U2OS [13], 10000 nM | – | – | 41.1 | – | –
Vero E6 [16], 1 nM | – | – | 97.2 | – | –
Vero E6 [16], 10 nM | – | – | 99.6 | – | –
Vero E6 [16], 100 nM | – | – | 100 | – | –
Vero E6 [16], 1000 nM | – | – | 97 | – | –
Vero E6 [16], 10000 nM | – | – | 80.7 | – | –
[8], 0.1 µM | – | 100 | – | – | –
[8], 0.3 µM | – | 102 | – | – | –
[8], 1 µM | – | 87 | – | – | –
[8], 3 µM | – | 93 | – | – | –
[8], 10 µM | – | 109 | – | – | –
[8], 30 µM | – | 18 | – | – | –
[12], 0.1 µM | 96 | – | – | – | –
[12], 0.3 µM | 100 | – | – | – | –
[12], 1 µM | 94 | – | – | – | –
[12], 3 µM | 30 | – | – | – | –
[12], 10 µM | 24 | – | – | – | –
[12], 30 µM | 82 | – | – | – | –
[18], 0.1 µM | – | – | – | 0.15 | –
[18], 0.3 µM | – | – | – | 0.025 | –
[18], 1 µM | – | – | – | 0.27 | –
[18], 3 µM | – | – | – | 0.71 | –
[18], 10 µM | – | – | – | 0.36 | –
[18], 30 µM | – | – | – | -0.08 | –

Conditions | drug sensitivity score | relative viability EC50 [µM]
Caco-2 [5] | 2.6 | –
Calu-3 [7] | 3.2 | –
Calu-3 [11] | – | 3.21
HepG2 [4] | 4.45 | –
HepG2 [10] | – | 2.22
U2OS [3] | 3.9 | –
U2OS [9] | – | 2.61
Vero E6 [6] | 0.8 | –
